The compounds below were run on Mycobacterium tuberculosis (assay: Antimycobacterial activity against isoniazid, rifampicin, ofloxacin and kanamycin-resistant Mycobacterium tuberculosis H37Rv ATCC 27294 clinical isolate after 28 days by two-fold serial dilution assay in presence of […] piperine efflux pump inhibitor). Settings: H37Rv ATCC 27294, 672 h.
Assay type: functional
In the case of CO[C@H]1/C=C/O[C@@]2(C)Oc3c(C)c(O)c4c(O)c(c(/C=N/N5CCN(C)CC5)c(O)c4c3C2=O)NC(=O)/C(C)=C\C=C\[C@H](C)[C@H](O)[C@@H](C)[C@@H](O)[C@@H](C)[C@H](OC(C)=O)[C@@H]1C [RIFAMPIN], the MIC is reported as 30.4 µM. With O=C(Cn1cnc2ccccc2c1=O)NCc1ccco1 the MIC was 11 µM. For NNC(=O)c1ccncc1 [ISONIAZID], the MIC was 45.6 µM. O=C(Cn1cnc2ccc(Cl)cc2c1=O)NCc1cccs1 gave an MIC of 37.4 µM. For Cc1nc2ccccc2c(=O)n1CC(=O)NCc1cccs1, the MIC was 19.9 µM. CC[C@@H](CO)NCCN[C@@H](CC)CO [ETHAMBUTOL] gave an MIC of 245 µM. In the case of O=C(Cn1cnc2ccccc2c1=O)NCc1nc2ccc([N+](=O)[O-])cc2s1, the MIC is reported as 4.09 µM. Cc1nc2ccc(Cl)cc2c(=O)n1CC(=O)NCc1ccco1 showed an MIC of 18.8 µM. For O=C(Cn1cnc2ccc(Cl)cc2c1=O)Nc1ccccc1, the MIC was 39.8 µM. O=C(Cn1cnc2ccccc2c1=O)Nc1ccccc1 gave an MIC of 22.4 µM. O=C(Cn1cnc2ccc(Cl)cc2c1=O)NCc1ccco1 gave an MIC of 39.3 µM. In the case of O=C(Cn1cnc2ccccc2c1=O)Nc1cc(C(F)(F)F)ccc1Cl, the MIC is reported as 8.18 µM. Compound O=C(Cn1cnc2ccccc2c1=O)NCc1cccs1 has an MIC of 20.9 µM. Compound Cc1nc2ccc(Cl)cc2c(=O)n1CC(=O)Nc1ccccc1 has an MIC of 19.1 µM. Work on O=C(Cn1cnc2ccc(Cl)cc2c1=O)Nc1cc(C(F)(F)F)ccc1Cl yielded an MIC of 60.1 µM.

Source: ChEMBL document CHEMBL3352048, “Development of 2-(4-oxoquinazolin-3(4H)-yl)acetamide derivatives as novel enoyl-acyl carrier protein reductase (InhA) inhibitors for the treatment of tuberculosis” (Eur J Med Chem, 2014)
